In ChEMBL document CHEMBL1201862, “PubChem BioAssay data set” (2004):
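Briefly, cells in 96-well plates were exposed to five compound concentrations for 48 h, and endpoints were estimated by linear interpolation. Here, GI50 denotes the concentration required for 50% inhibition of growth.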 Activity calls are given as the source filed them. Rule as the data show it: active = GI50 up to about 1.1 µM and inactive = higher.

Experiments:
Experiment in all cases: NCI anticancer screen, dose series, 48 h
RXF 393 = test system: RXF 393
SW-620 = test system: SW-620
IGROV-1 = test system: IGROV-1
OVCAR-5 = test system: OVCAR-5
SK-OV-3 = test system: SK-OV-3
OVCAR-8 = test system: OVCAR-8
NCI-H226 = test system: NCI-H226
SF-295 = test system: SF-295
RPMI-8226 = test system: RPMI-8226
NCI-H23 = test system: NCI-H23
K562 = test system: K562
A498 = test system: A498
786-0 = test system: 786-0
Malme-3M = test system: Malme-3M
LOX IMVI = test system: LOX IMVI
SN12C = test system: SN12C
SK-MEL-28 = test system: SK-MEL-28
UACC-62 = test system: UACC-62
MCF7 = test system: MCF7
PC-3 = test system: PC-3

Measured: GI50

O=C1CCC2(c3ccc(F)cc3)Nc3ccccc3N12 (stereo not given)
inactive: RXF 393 > 100 µM | SW-620 > 100 µM | IGROV-1 > 100 µM | OVCAR-5 > 100 µM | SK-OV-3 > 100 µM | OVCAR-8 > 100 µM | NCI-H226 > 100 µM | SF-295 > 100 µM | RPMI-8226 > 100 µM | NCI-H23 > 100 µM | K562 > 100 µM | A498 > 100 µM | 786-0 > 100 µM | Malme-3M > 100 µM | LOX IMVI > 100 µM | SN12C > 100 µM | SK-MEL-28 > 100 µM | UACC-62 > 100 µM

Cc1oc2nc(N(C)C)n3nnnc3c2c1C
inactive: RXF 393 57.4 µM | SW-620 > 100 µM | IGROV-1 > 100 µM | OVCAR-5 > 100 µM | SK-OV-3 85.7 µM | OVCAR-8 76 µM | NCI-H226 > 100 µM | SF-295 > 100 µM | RPMI-8226 > 100 µM | NCI-H23 > 100 µM | K562 > 100 µM | A498 76.2 µM | MCF7 > 100 µM | 786-0 70.1 µM | LOX IMVI > 100 µM | SN12C > 100 µM | SK-MEL-28 > 100 µM | UACC-62 49.9 µM

O=C1NC(=S)NC1C(Cc1ccccc1)c1ccco1 (stereo not given)
inactive: RXF 393 > 100 µM | SW-620 > 100 µM | IGROV-1 > 100 µM | OVCAR-5 > 100 µM | SK-OV-3 > 100 µM | OVCAR-8 > 100 µM | NCI-H226 > 100 µM | SF-295 > 100 µM | RPMI-8226 84.9 µM | NCI-H23 > 100 µM | K562 83.4 µM | A498 > 100 µM | MCF7 6.76 µM | 786-0 > 100 µM | Malme-3M > 100 µM | LOX IMVI > 100 µM | SN12C > 100 µM | SK-MEL-28 > 100 µM

COc1ccc(CNc2cc(OC)c(OC)c(OC)c2)cc1
inactive: RXF 393 5.89 µM | SW-620 3.31 µM | IGROV-1 5.89 µM | OVCAR-5 > 25.3 µM | SK-OV-3 5.65 µM | OVCAR-8 8.99 µM | NCI-H226 7.5 µM | SF-295 4.18 µM | RPMI-8226 4.18 µM | NCI-H23 6.08 µM | K562 2.18 µM | A498 9.08 µM | 786-0 12.2 µM | Malme-3M 7.03 µM | LOX IMVI 5.94 µM | SN12C 7.71 µM | SK-MEL-28 2.94 µM | UACC-62 3.32 µM

c1ccc([B-]2(c3ccccc3)NCCCO2)cc1
inactive: RXF 393 28.8 µM | SW-620 49.5 µM | IGROV-1 55 µM | OVCAR-5 > 100 µM | SK-OV-3 85.7 µM | OVCAR-8 70.5 µM | NCI-H226 31 µM | SF-295 51.3 µM | RPMI-8226 37.2 µM | NCI-H23 47 µM | K562 97.7 µM | A498 47.9 µM | 786-0 56.9 µM | Malme-3M 48.9 µM | PC-3 20.9 µM | LOX IMVI 59.4 µM | SN12C 70.8 µM | SK-MEL-28 56.8 µM | UACC-62 45.4 µM

CCOc1ccc(NCC2CC/C(=C\c3ccc(Cl)cc3)C2=O)cc1 (stereo not given)
inactive: RXF 393 > 47.9 µM | SW-620 17.1 µM | IGROV-1 > 36 µM | OVCAR-5 > 100 µM | SK-OV-3 > 100 µM | OVCAR-8 > 38.3 µM | NCI-H226 > 100 µM | SF-295 > 100 µM | RPMI-8226 2.54 µM | NCI-H23 > 48.9 µM | K562 6.81 µM | A498 > 49.5 µM | 786-0 13 µM | Malme-3M 34.5 µM | LOX IMVI 19.4 µM | SN12C > 42.8 µM | SK-MEL-28 50.2 µM | UACC-62 > 40.7 µM

Cc1cc(=O)oc2cc3c(cc12)Oc1ccccc1O3
inactive: RXF 393 > 100 µM | SW-620 > 100 µM | IGROV-1 > 100 µM | OVCAR-5 > 100 µM | SK-OV-3 99.8 µM | OVCAR-8 42.7 µM | NCI-H226 > 100 µM | SF-295 43.5 µM | RPMI-8226 > 100 µM | NCI-H23 89.3 µM | K562 > 10 µM | A498 > 100 µM | 786-0 > 100 µM | Malme-3M > 100 µM | LOX IMVI 54.6 µM | SN12C > 100 µM | SK-MEL-28 > 100 µM | UACC-62 > 100 µM

COc1cccc(NC(=O)CSc2nnc(Cc3ccccc3)o2)c1
inactive: RXF 393 > 100 µM | SW-620 > 100 µM | IGROV-1 > 100 µM | OVCAR-5 > 100 µM | SK-OV-3 > 100 µM | OVCAR-8 > 100 µM | NCI-H226 > 100 µM | SF-295 > 100 µM | RPMI-8226 > 100 µM | NCI-H23 > 100 µM | K562 > 100 µM | A498 > 100 µM | 786-0 > 100 µM | Malme-3M > 100 µM | LOX IMVI > 100 µM | SN12C > 100 µM | SK-MEL-28 > 100 µM | UACC-62 > 100 µM

O=C(CC1C(=O)c2ccccc2C1=C1C(=O)c2ccccc2C1=O)c1ccccc1 (stereo not given)
inactive: RXF 393 > 100 µM | SW-620 > 100 µM | IGROV-1 > 100 µM | OVCAR-5 > 100 µM | SK-OV-3 > 100 µM | OVCAR-8 > 100 µM | NCI-H226 > 100 µM | SF-295 > 100 µM | RPMI-8226 > 100 µM | NCI-H23 > 100 µM | K562 30.3 µM | A498 > 100 µM | 786-0 50.6 µM | Malme-3M > 100 µM | LOX IMVI > 100 µM | SN12C > 100 µM | SK-MEL-28 > 100 µM | UACC-62 > 100 µM

CC1=NNC(=O)C1C1CC(c2c[nH]c3ccccc23)=NN=C1Cl (stereo not given)
inactive: RXF 393 45.8 µM | SW-620 63.5 µM | IGROV-1 20.6 µM | OVCAR-5 > 100 µM | SK-OV-3 > 100 µM | OVCAR-8 > 100 µM | NCI-H226 74.1 µM | SF-295 53.1 µM | RPMI-8226 23.7 µM | NCI-H23 39.4 µM | K562 28.4 µM | A498 > 100 µM | 786-0 49.9 µM | Malme-3M > 100 µM | PC-3 56.5 µM | LOX IMVI 33.3 µM | SN12C 82 µM | SK-MEL-28 87.5 µM | UACC-62 85.7 µM

O=C(O)C1CC2CC(=O)C1C2 (stereo not given)
inactive: RXF 393 > 100 µM | SW-620 > 100 µM | IGROV-1 > 100 µM | OVCAR-5 > 100 µM | SK-OV-3 > 100 µM | OVCAR-8 > 100 µM | NCI-H226 > 100 µM | SF-295 > 100 µM | RPMI-8226 > 100 µM | NCI-H23 > 100 µM | K562 > 100 µM | A498 > 100 µM | 786-0 > 100 µM | Malme-3M > 100 µM | LOX IMVI > 100 µM | SN12C > 100 µM | SK-MEL-28 > 100 µM | UACC-62 > 100 µM
